Source: ChEMBL document CHEMBL4507270 (2021)

How the values were obtained:
[1] = system: Epidermal growth factor receptor (Homo sapiens), P00533 [T790M]
[2] = system: Mast/stem cell growth factor receptor Kit (Homo sapiens), P10721 [V559D,V654A]
[3] = target: Serine/threonine-protein kinase 26 (Homo sapiens) (UniProt Q9P289)
[4] = target: MAP kinase-interacting serine/threonine-protein kinase 1 (Homo sapiens) (UniProt Q9BUB5)
[5] = target: Tyrosine-protein kinase Tec (Homo sapiens) (UniProt P42680)
[6] = target: Calcium/calmodulin-dependent protein kinase type 1 (Homo sapiens) (UniProt Q14012)
[7] = target: Protein-tyrosine kinase 6 (Homo sapiens) (UniProt Q13882)
[8] = target: Tyrosine-protein kinase TXK (Homo sapiens) (UniProt P42681)
[9] = target: SRSF protein kinase 1 (Homo sapiens) (UniProt Q96SB4)
[10] = target: Tyrosine-protein kinase Blk (Homo sapiens) (UniProt P51451)
[11] = target: 5'-AMP-activated protein kinase catalytic subunit alpha-2 (Homo sapiens) (UniProt P54646)
[12] = target: Cytoplasmic tyrosine-protein kinase BMX (Homo sapiens) (UniProt P51813)
[13] = target: Sodium-dependent serotonin transporter (Homo sapiens) (UniProt P31645); settings: Compound concentration 10.0 uM
[14] = target: Serine/threonine-protein kinase TAO3 (Homo sapiens) (UniProt Q9H2K8)
[15] = target: Serine/threonine-protein kinase DCLK2 (Homo sapiens) (UniProt Q8N568)
Sequence of Serine/threonine-protein kinase DCLK2 (Homo sapiens) (Q8N568 whole entry): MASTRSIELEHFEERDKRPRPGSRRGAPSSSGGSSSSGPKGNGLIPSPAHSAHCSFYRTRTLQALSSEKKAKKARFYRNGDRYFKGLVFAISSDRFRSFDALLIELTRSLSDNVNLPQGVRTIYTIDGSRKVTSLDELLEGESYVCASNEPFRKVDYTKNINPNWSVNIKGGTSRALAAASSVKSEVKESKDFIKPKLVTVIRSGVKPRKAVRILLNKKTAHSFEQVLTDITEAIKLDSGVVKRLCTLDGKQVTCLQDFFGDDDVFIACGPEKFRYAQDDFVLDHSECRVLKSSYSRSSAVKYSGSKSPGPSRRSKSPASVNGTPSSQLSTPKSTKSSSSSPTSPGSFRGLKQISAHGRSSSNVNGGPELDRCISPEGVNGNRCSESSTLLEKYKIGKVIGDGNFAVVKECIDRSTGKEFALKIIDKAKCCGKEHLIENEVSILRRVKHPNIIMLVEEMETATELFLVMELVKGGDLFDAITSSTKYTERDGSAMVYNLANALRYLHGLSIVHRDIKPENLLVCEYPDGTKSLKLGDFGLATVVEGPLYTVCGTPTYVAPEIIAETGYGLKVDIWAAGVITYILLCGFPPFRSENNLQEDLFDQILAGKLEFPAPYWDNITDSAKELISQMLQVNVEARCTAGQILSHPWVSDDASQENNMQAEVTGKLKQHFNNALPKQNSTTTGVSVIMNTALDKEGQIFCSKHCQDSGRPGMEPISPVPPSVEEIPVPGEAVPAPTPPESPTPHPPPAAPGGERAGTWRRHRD

[16] = target: Interleukin-1 receptor-associated kinase 3 (Homo sapiens) (UniProt Q9Y616)
Sequence of Interleukin-1 receptor-associated kinase 3 (Homo sapiens) (Q9Y616 whole entry): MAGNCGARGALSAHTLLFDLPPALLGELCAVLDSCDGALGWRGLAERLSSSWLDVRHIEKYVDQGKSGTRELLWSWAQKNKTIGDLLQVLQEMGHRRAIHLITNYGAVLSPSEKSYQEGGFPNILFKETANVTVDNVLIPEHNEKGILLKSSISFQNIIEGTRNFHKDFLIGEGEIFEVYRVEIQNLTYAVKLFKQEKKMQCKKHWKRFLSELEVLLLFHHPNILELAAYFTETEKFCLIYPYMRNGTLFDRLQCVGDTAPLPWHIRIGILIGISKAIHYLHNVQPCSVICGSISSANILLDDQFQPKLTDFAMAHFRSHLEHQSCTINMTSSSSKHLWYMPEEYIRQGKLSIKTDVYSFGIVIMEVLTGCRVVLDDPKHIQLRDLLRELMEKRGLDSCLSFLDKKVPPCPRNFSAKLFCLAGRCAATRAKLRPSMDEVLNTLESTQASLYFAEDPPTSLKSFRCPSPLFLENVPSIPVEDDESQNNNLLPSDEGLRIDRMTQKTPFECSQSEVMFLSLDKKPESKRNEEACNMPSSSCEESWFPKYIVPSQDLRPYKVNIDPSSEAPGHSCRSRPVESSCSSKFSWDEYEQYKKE

[17] = target: Ribosomal protein S6 kinase alpha-1 (Homo sapiens) (UniProt Q15418)
[18] = target: Tyrosine-protein kinase Srms (Homo sapiens) (UniProt Q9H3Y6)
[19] = target: 3-phosphoinositide-dependent protein kinase 1 (Homo sapiens) (UniProt O15530)
[20] = target: Beta-adrenergic receptor kinase 1 (Homo sapiens) (UniProt P25098)
[21] = target: Serine/threonine-protein kinase D2 (Homo sapiens) (UniProt Q9BZL6)
[22] = target: Tyrosine-protein kinase Mer (Homo sapiens) (UniProt Q12866)
[23] = target: Calcium/calmodulin-dependent protein kinase type 1D (Homo sapiens) (UniProt Q8IU85)
Sequence of Calcium/calmodulin-dependent protein kinase type 1D (Homo sapiens) (Q8IU85 whole entry, looked up): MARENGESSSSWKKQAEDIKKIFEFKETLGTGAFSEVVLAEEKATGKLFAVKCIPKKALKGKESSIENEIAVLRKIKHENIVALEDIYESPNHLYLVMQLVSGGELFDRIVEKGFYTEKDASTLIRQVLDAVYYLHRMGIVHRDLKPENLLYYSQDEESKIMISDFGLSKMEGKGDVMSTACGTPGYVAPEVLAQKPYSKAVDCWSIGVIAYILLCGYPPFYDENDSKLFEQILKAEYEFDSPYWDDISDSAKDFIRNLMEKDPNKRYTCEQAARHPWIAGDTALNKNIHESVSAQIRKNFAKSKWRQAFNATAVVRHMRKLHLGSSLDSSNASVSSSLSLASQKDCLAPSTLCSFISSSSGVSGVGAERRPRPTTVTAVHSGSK

[24] = target: Ephrin type-A receptor 6 (Homo sapiens) (UniProt Q9UF33)
[25] = target: Tyrosine-protein kinase JAK1 (Homo sapiens) (UniProt P23458)
Sequence of Tyrosine-protein kinase JAK1 (Homo sapiens) (P23458 whole entry): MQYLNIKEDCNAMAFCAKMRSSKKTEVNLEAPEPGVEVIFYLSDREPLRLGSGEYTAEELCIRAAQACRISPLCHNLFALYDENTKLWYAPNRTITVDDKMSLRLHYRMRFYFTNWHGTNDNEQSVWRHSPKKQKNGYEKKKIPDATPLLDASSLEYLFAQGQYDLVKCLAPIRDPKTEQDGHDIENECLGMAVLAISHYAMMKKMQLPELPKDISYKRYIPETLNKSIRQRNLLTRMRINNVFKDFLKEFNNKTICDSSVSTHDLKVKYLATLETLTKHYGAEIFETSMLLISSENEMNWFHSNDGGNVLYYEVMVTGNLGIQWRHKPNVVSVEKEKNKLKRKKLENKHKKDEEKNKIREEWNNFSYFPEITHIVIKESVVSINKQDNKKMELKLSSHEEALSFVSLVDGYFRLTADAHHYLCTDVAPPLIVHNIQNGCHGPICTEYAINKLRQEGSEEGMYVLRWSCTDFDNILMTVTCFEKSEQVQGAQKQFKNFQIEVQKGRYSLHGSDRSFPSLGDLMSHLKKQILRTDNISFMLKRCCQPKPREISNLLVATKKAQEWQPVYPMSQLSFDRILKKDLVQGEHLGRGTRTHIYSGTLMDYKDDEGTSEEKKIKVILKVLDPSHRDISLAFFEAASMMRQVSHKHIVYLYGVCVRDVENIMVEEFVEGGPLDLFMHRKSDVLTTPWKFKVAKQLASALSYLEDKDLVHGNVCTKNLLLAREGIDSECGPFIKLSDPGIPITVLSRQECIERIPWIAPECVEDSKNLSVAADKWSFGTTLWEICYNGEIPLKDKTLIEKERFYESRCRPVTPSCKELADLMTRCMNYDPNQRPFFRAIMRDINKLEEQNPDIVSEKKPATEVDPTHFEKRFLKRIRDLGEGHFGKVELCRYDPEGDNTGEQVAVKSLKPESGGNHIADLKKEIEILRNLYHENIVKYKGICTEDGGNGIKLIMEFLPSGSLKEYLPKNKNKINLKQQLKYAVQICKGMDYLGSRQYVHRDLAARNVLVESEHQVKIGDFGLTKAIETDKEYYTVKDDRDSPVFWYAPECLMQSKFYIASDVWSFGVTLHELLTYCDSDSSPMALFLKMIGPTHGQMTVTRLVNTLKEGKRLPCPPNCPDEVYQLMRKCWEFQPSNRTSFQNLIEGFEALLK

[26] = target: Serine/threonine-protein kinase Sgk2 (Homo sapiens) (UniProt Q9HBY8)
[27] = target: Bone morphogenetic protein receptor type-1B (Homo sapiens) (UniProt O00238)
[28] = system: Phosphatidylinositol 4,5-bisphosphate 3-kinase catalytic subunit alpha isoform (Homo sapiens), P42336 [I800L]
Sequence of Phosphatidylinositol 4,5-bisphosphate 3-kinase catalytic subunit alpha isoform (Homo sapiens), P42336 [I800L] (P42336 whole entry I800L, canonical isoform): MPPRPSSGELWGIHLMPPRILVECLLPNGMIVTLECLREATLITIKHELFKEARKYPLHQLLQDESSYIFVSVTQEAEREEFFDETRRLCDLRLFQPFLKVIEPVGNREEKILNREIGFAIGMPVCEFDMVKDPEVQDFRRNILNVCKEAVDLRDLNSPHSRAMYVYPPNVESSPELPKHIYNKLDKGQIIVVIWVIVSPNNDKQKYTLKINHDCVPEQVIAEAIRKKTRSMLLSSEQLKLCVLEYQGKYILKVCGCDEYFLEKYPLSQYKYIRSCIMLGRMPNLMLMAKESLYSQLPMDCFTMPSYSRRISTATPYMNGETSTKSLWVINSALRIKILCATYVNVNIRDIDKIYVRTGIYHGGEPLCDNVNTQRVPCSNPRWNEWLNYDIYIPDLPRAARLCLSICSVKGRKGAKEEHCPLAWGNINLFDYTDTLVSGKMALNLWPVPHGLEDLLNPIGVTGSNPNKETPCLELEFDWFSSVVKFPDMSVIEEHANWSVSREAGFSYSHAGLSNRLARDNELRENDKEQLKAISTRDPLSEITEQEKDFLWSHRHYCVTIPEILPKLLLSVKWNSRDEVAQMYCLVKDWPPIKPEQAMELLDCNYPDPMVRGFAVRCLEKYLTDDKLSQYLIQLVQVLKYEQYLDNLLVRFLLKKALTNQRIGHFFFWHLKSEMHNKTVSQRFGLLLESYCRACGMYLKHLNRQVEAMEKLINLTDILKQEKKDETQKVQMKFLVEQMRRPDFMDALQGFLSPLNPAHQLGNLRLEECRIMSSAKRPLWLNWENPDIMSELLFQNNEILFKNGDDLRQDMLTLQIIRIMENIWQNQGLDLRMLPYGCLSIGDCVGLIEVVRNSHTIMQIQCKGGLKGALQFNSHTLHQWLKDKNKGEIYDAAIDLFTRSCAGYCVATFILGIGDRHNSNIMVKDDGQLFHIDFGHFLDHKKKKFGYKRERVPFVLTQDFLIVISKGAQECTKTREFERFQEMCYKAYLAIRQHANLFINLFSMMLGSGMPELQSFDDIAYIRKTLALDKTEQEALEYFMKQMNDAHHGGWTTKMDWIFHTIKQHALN

[29] = system: Hepatocyte growth factor receptor (Homo sapiens), P08581 [Y1235D]
[30] = system: Proto-oncogene tyrosine-protein kinase receptor Ret (Homo sapiens), P07949 [M918T]
[31] = target: SNF-related serine/threonine-protein kinase (Homo sapiens) (UniProt Q9NRH2)
[32] = target: Ribosomal protein S6 kinase alpha-3 (Homo sapiens) (UniProt P51812)
[33] = target: Serine/threonine-protein kinase D1 (Homo sapiens) (UniProt Q15139)
[34] = target: Serine/threonine-protein kinase Nek6 (Homo sapiens) (UniProt Q9HC98)
[35] = target: Insulin-like growth factor 1 receptor (Homo sapiens) (UniProt P08069)
[36] = target: Mitogen-activated protein kinase 13 (Homo sapiens) (UniProt O15264)
[37] = target: Ephrin type-B receptor 1 (Homo sapiens) (UniProt P54762)
[38] = target: Leucine-rich repeat serine/threonine-protein kinase 2 (Homo sapiens) (UniProt Q5S007)
[39] = target: Serine/threonine-protein kinase pim-1 (Homo sapiens) (UniProt P11309)
[40] = target: Serine/threonine-protein kinase 17B (Homo sapiens) (UniProt O94768)
Sequence of Serine/threonine-protein kinase 17B (Homo sapiens) (O94768 whole entry): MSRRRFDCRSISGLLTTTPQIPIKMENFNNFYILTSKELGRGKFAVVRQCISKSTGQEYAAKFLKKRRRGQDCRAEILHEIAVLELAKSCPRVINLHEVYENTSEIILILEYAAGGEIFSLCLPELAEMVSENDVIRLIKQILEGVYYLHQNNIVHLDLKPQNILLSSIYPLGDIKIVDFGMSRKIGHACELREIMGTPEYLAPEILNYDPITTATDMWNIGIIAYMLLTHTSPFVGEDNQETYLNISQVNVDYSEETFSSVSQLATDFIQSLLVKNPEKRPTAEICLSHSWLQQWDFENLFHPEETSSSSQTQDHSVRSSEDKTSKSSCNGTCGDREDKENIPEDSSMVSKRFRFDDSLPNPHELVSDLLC

[41] = target: Cyclin-dependent kinase 11B (Homo sapiens) (UniProt P21127)
[42] = target: Cyclin-dependent kinase 18 (Homo sapiens) (UniProt Q07002)
[43] = target: Serine/threonine-protein kinase RIO1 (Homo sapiens) (UniProt Q9BRS2)
Sequence of Serine/threonine-protein kinase RIO1 (Homo sapiens) (Q9BRS2 whole entry): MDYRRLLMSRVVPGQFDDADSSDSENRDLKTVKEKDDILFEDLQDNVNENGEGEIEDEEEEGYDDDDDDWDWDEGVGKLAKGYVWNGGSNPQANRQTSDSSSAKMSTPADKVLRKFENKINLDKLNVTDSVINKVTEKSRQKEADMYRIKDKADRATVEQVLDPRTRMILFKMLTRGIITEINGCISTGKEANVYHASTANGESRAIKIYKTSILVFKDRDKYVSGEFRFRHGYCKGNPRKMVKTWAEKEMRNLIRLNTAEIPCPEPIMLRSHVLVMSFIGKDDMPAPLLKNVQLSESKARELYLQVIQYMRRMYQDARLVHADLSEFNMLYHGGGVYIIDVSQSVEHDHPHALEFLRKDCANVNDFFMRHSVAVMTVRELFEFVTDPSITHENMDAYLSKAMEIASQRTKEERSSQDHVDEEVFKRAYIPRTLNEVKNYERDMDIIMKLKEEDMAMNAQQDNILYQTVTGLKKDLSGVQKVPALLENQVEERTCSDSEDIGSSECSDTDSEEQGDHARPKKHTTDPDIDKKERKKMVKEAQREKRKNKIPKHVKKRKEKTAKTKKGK

[44] = target: Tyrosine-protein kinase Fyn (Homo sapiens) (UniProt P06241)
[45] = target: Insulin receptor (Homo sapiens) (UniProt P06213)
[46] = Compound concentration 1000.0 nM
[47] = Compound concentration 100.0 nM

Cc1cc(NC(=O)c2cccc(S(F)(F)(F)(F)F)c2)cc(-n2ccn3nc(-c4cccnc4)cc23)c1 [BAY-309]
inactive: residual activity [1, 46] 100% | residual activity [2, 46] 100% | residual activity [3, 46] 100% | residual activity [4, 46] 100% | residual activity [5, 46] 100% | residual activity [6, 46] 77.9% | residual activity [7, 46] 100% | residual activity [8, 46] 56.2% | residual activity [9, 46] 100% | residual activity [10, 46] 100% | residual activity [11, 46] 100% | residual activity [12, 46] 100% | inhibition [13] 19.2% | residual activity [14, 46] 100% | residual activity [15, 46] 100% | residual activity [16, 46] 100% | residual activity [17, 46] 100% | residual activity [18, 46] 86.9% | residual activity [19, 46] 92% | residual activity [20, 46] 74.5% | residual activity [21, 46] 100% | residual activity [22, 46] 100% | residual activity [23, 46] 94.9% | residual activity [24, 46] 100% | residual activity [25, 46] 100% | residual activity [26, 46] 100% | residual activity [27, 46] 100% | residual activity [28, 46] 96% | residual activity [29, 46] 100% | residual activity [30, 46] 100% | residual activity [31, 46] 100% | residual activity [32, 46] 89% | residual activity [33, 46] 100% | residual activity [34, 46] 97% | residual activity [35, 46] 100% | residual activity [36, 46] 79.6% | residual activity [37, 46] 100% | residual activity [38, 46] 74.6% | residual activity [39, 46] 95.6% | residual activity [40, 46] 100% | residual activity [41, 46] 100% | residual activity [42, 46] 80.6% | residual activity [43, 46] 100% | residual activity [44, 46] 81.3% | residual activity [45, 46] 100%

Cc1cc(C)c(-n2ccn3nc(-c4cccnc4)cc23)cc1NC(=O)c1cc(C#N)cc(S(F)(F)(F)(F)F)c1 [BAY-826]
active: residual activity [14, 47] 47.1%
inactive: residual activity [1, 47] 61.6% | residual activity [2, 47] 89.4% | residual activity [3, 47] 81.8% | residual activity [4, 47] 83.8% | residual activity [5, 47] 88.4% | residual activity [6, 47] 60.4% | residual activity [7, 47] 99.5% | residual activity [8, 47] 98.3% | residual activity [9, 47] 67.4% | residual activity [10, 47] 100% | residual activity [11, 47] 82.7% | residual activity [12, 47] 76.7% | inhibition [13] 11.1% | residual activity [15, 47] 90.6% | residual activity [16, 47] 75.2% | residual activity [17, 47] 100% | residual activity [18, 47] 67.4% | residual activity [19, 47] 100% | residual activity [20, 47] 91.8% | residual activity [21, 47] 100% | residual activity [22, 47] 83.6% | residual activity [23, 47] 71.6% | residual activity [24, 47] 82.6% | residual activity [25, 47] 100% | residual activity [26, 47] 100% | residual activity [27, 47] 72.3% | residual activity [28, 47] 92.8% | residual activity [29, 47] 93.4% | residual activity [30, 47] 77.1% | residual activity [31, 47] 100% | residual activity [32, 47] 65.1% | residual activity [33, 47] 81.2% | residual activity [34, 47] 93.9% | residual activity [35, 47] 84.7% | residual activity [36, 47] 65.6% | residual activity [37, 47] 100% | residual activity [38, 47] 83.5% | residual activity [39, 47] 92% | residual activity [40, 47] 91.4% | residual activity [41, 47] 93.2% | residual activity [42, 47] 98.4% | residual activity [43, 47] 100% | residual activity [44, 47] 97.5% | residual activity [45, 47] 69%
